Experimental data reported in patent US10125356B2, “Enzymatic methods and enzymes” (Givaudan SA, priority 2007, dated 2018).
Peptide text beside a SMILES is read from it. * marks the point of attachment. Cbz = O=C(OCc1ccccc1)*

How the values were obtained:
[1] = biological target: T1, AMRE enzyme (Nα-acyl-glutamine-aminoacylase) (Corynebacterium striatum, UniProt Q8GGD4); assay: Inhibition of AMRE-catalysed release of free NH2 groups from N-Lauroyl-glutamine; format: biochemical
T1 construct: made in house
Protocol: In an additional step to example 7 or 8, the identified peptidase inhibitors were tested for their modulating effect against the AMRE enzyme (Nα-acyl-glutamine-aminoacylase described by Natsch in EP1258531), thereby identifying dual inhibitors of both metallopeptidase enzymes involved in malodour release.
AMRE is formed as described in example 6 of EP1258531.

[2] = tested on: Ax20 peptidase (SEQ ID NO: 2); assay: Inhibition of Pro-Gly cleavage by recombinant Ax20 peptidase, fluorescamine detection of free NH2; format: biochemical, Corynebacterium sp. Ax20; details: Pro-Gly 1 mM, 1 μg/ml peptidase, 60 min at 37° C.
Protocol: Cleavage of the peptide substrate Pro-Gly by addition of the recombinant Ax20 peptidase (SEQ ID NO: 2) released a unique free NH2 group which can be derivatized by fluorescamine (Fluram™, Fluka, Buchs, Switzerland). Test compounds (for example, potential enzyme inhibitors) are dissolved in dimethylsulfoxid (DMSO), for example in individual wells of a microtiter plate. […] Controls are run in parallel and subjected to the same procedure. A positive control contains DMSO without inhibitor, a negative control contains no substrate.

[3] = tested on: peptidase (SEQ ID NO:2) and β-lyase; assay: Inhibition of free SH release from S-benzyl-cys-gly by peptidase plus β-lyase, monobromobimane detection; format: biochemical, Corynebacterium sp. Ax20; details: peptidase 0.1 μg/ml, β-lyase 5 μg/ml
Protocol: For the results shown below (S-benzyl)-cys-gly was used.
Instead of derivatising the free NH2 group of the conjugate by adding Fluram, the free SH group released from the conjugate by the subsequent action of both enzymes was derivatised by adding monobromobimane (Fluka, Buchs, Switzerland) dissolved in a NaCO3 buffer (100 mM, pH 8.8) to give a final concentration of 0.5 mM to 1 mM. After 5 to 15 min incubation the fluorescence was measured on a Flex-station (Molecular devices, Sunnyvale, Calif., USA) with an excitation wavelength of 385 nm and an emission wavelength of 480 nm.

Ax20 peptidase = assay: Substrate specificity of recombinant Ax20 peptidase, cleavage by thin layer chromatography; format: biochemical, Corynebacterium sp. Ax20; set-up: key: (+++) indicating >80% cleavage of a 1 mM solution by 0.1 μg/ml peptidase during an incubation for 1 h; (++) indicates complete cleavage of a 1 mM solution by 1 μg/ml peptidase during an incubation for 1 h; (+) indicates partial cleavage (20-80%) of a 1 mM solution by 1 μg/ml peptidase during an incubation for 1 h; (−) indicating the absence of any cleavage; details: 1 mM solution, 0.1 or 1 μg/ml peptidase, incubation 1 h
Protocol: The recombinant Ax20 peptidase formed as described in example 3 (affinity column purified tagged enzyme) was incubated with different compounds, in particular potential candidate dipeptide substrates, to characterize the substrate specificity and to identify substrates useful for screening assays (for example to screen for modulators including inhibitors).
The table below lists the tested compounds (mostly dipeptides indicated by their short names, e.g. ala-gly for an alanine-glycine dipeptide) and indicates whether they are cleaved by the peptidase. Z indicates a benzyloxy-carbonyl protecting group at the N-terminus of the peptide.
Cleavage was determined by thin layer chromatography.
Amounts are qualitative with (+++) indicating >80% cleavage of a 1 mM solution by 0.1 μg/ml peptidase during an incubation for 1 h; (++) indicates complete cleavage of a 1 mM solution by 1 μg/ml peptidase during an incubation for 1 h and (+) indicates partial cleavage (20-80%) of a 1 mM solution by 1 μg/ml peptidase during an incubation for 1 h and (−) indicating the absence of any cleavage.

β-lyase = biological target: T2, β-lyase (Corynebacterium striatum, UniProt Q64HC5); assay: Cleavage of conjugates by β-lyase, release of 3-sulfanyl-3-methyl-hexanol by gas chromatography; format: biochemical, Corynebacterium sp. Ax20; details: conjugate 1 mM incubated with β-lyase
T2 construct: made in house
Protocol: The test compounds (Cys-conjugate (1 mM) or Cys-Gly-conjugate (1 mM)) were incubated with β-lyase.
(§1) Cleavage was measured by gas chromatography to determine the release of 3-sulfanyl-3-methyl-hexanol in mM.

C. sp. Ax 20 extract = assay: Cleavage of conjugates by Corynebacterium sp. Ax20 cellular extract, release of 3-sulfanyl-3-methyl-hexanol by gas chromatography; format: biochemical; details: conjugate 1 mM incubated with C. sp. Ax 20 extract for 24 h
Protocol: The test compounds (cys-conjugate (1 mM) or cys-gly-conjugate (1 mM)) were incubated also with the wild-type strain Corynebacterium sp. Ax20 extract naturally containing the peptidase of SEQ ID NO:2. Corynebacterium sp. Ax20 cellular extract was prepared as described in example 1. The resulting extract was diluted to the same volume as the original culture has had when adjusted to an optical density of OD 4. The substrate was incubated with the extract for 24 h.
as §1

C. sp. Ax20 extract = assay: Inhibition of malodourant release by C. sp. Ax20 extract; format: biochemical, Corynebacterium sp. Ax20; details: o-phenantrolin 0.5 mM, Complete at manufacturer's use concentration, 10 min pre-incubation
Protocol: (§2) Extracts from C. sp. Ax20 and C. jeikeium K411 were formed as described in example 1.
(§3) O-phenantrolin (0.5 mM), a metallopeptidase inhibitor, or Complete™ (EDTA free), a protease inhibitor mix (Roche biochemicals, Switzerland; use concentration as indicated by the manufacturer) that contains broad specificity serine and […] inhibitors but no metallopeptidase inhibitors were added to batches of the extracts and incubated for 10 min.
(§4) The cys-conjugate or the cys-gly-conjugate (1 mM), both precursors for the malodourant 3-sulfanyl-3-methyl-hexanol, were then added to the C. sp. Ax20 or C. jeikeium K411 extracts containing the different inhibitors.
(§5) The release of the malodourant 3-sulfanyl-3-methyl-hexanol, which indicates enzyme activity in the Corynebacteria cell lysates, was measured as described in examples 12 and 13.
(§6) The results (in % inhibition of 3-sulfanyl-3-methyl-hexanol release compared to reactions without added inhibitors) are indicated in the table below.

C. jeikeium K411 extract = assay: Inhibition of malodourant release by C. jeikeium K411 extract; format: biochemical, Corynebacterium jeikeium K411; details: o-phenantrolin 0.5 mM, Complete at manufacturer's use concentration, 10 min pre-incubation
Protocol: as §2, §3, §4, §5, §6

T1 sequence (Q8GGD4 whole entry): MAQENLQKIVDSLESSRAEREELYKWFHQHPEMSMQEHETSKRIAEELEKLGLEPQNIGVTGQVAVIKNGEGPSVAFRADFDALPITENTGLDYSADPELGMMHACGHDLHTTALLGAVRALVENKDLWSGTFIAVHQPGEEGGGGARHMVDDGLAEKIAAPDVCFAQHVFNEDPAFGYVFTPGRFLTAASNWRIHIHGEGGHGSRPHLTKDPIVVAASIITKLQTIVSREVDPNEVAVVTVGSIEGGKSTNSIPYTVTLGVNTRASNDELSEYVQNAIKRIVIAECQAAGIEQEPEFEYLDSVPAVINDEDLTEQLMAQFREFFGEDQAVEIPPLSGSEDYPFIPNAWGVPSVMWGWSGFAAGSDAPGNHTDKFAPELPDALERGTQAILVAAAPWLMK
T2 sequence (Q64HC5 whole entry): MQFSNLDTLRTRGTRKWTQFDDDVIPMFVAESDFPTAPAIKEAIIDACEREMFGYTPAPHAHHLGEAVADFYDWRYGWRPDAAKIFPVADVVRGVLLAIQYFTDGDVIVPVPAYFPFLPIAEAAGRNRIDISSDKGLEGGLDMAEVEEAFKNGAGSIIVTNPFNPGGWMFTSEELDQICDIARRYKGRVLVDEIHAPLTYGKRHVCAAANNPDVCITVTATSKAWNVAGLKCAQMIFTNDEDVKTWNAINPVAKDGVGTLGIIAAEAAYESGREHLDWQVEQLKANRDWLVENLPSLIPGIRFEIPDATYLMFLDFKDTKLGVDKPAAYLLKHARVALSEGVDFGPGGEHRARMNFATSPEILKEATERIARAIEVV

Row | SMILES | Inhibition of release of free NH2 groups from N-Lauroyl-glutamine (catalyzed by AMRE) ([1]; test compound 15.625 microM) | Inhibition of release of free NH2 groups from N-Lauroyl-glutamine (catalyzed by AMRE) ([1]; test compound 31.25 microM) | Inhibition of release of free NH2 groups from N-Lauroyl-glutamine (catalyzed by AMRE) ([1]; test compound 62.5 microM) | Inhibition of release of free NH2 groups from Pro-Gly ([2]; test compound 15.625 microM) | Inhibition of release of free NH2 groups from Pro-Gly ([2]; test compound 31.25 microM) | Inhibition of release of free NH2 groups from Pro-Gly ([2]; test compound 62.5 microM) | Inhibition of release of free SH groups from S-benzyl-cys-gly in presence of peptidase and β-lyase ([3]; test compound 15.625 microM) | Inhibition of release of free SH groups from S-benzyl-cys-gly in presence of peptidase and β-lyase ([3]; test compound 31.25 microM) | Inhibition of release of free SH groups from S-benzyl-cys-gly in presence of peptidase and β-lyase ([3]; test compound 62.5 microM) | Cleavage (Ax20 peptidase) | other results
1 | O=C(O)CSCCSCC(=O)O [2,2′-Ethylendithio-diacetic acid] | 22.4 % inhibition | 12.7 % inhibition | 19.6 % inhibition | 0.1 % inhibition | −2.6 % inhibition | −5.3 % inhibition | −10.1 % inhibition | −9.1 % inhibition | −8.7 % inhibition |  | 
2 | CC(N)C(=O)NC(C)C(=O)O (centres unmarked) [Ala-Ala] |  |  |  |  |  |  |  |  |  | ++ | 
3 | CC(N)C(=O)NCC(=O)O (centres unmarked) [Ala-Gly] |  |  |  |  |  |  |  |  |  | ++ | 
4 | O=C(O)CN(CCN(CC(=O)O)CC(=O)O)CC(=O)O [Ethylenediaminetetraacetic acid] | 62.4 % inhibition | 59.8 % inhibition | 61.6 % inhibition | 101.0 % inhibition | 102.6 % inhibition | 101.4 % inhibition | 99.3 % inhibition | 96.5 % inhibition | 99.0 % inhibition |  | 
5 | NCC(=O)NCC(=O)O [Gly-Gly] (H-Gly-Gly-OH) |  |  |  |  |  |  |  |  |  | + ((+) indicates partial cleavage (20-80%) of a 1 mM solution by 1 μg/ml peptidase during an incubation for 1 h) | 
6 | NC(CSCc1ccccc1)C(=O)NCC(=O)O (centres unmarked) [H-Cys(Bzl)-Gly-OH, S-benzyl-Cys-Gly] |  |  |  |  |  |  |  |  |  | +++ ((+++) indicating >80% cleavage of a 1 mM solution by 0.1 μg/ml peptidase during an incubation for 1 h) | 
7 | O=C(O)CNC(=O)C1CCCN1 (centres unmarked) [Pro-Gly] |  |  |  |  |  |  |  |  |  | + ((+) indicates partial cleavage (20-80%) of a 1 mM solution by 1 μg/ml peptidase during an incubation for 1 h) | 
8 | C[C@H](NC(=O)OCc1ccccc1)C(=O)O [Z-Ala] |  |  |  |  |  |  |  |  |  | − | 
9 | O=C(O)CNC(=O)CNC(=O)OCc1ccccc1 [Z-Gly-Gly] (Cbz-Gly-Gly-OH) |  |  |  |  |  |  |  |  |  | − | 
10 | O=C(O)CNC(=O)OCc1ccccc1 [Z-Gly] |  |  |  |  |  |  |  |  |  | − | 
11 | CCCC(C)(CCO)SC[C@H](N)C(=O)O (some centres unmarked) [cys-conjugate] |  |  |  |  |  |  |  |  |  |  | release of 3-sulfanyl-3-methyl-hexanol from the conjugate (β-lyase): 0.59 mM; release of 3-sulfanyl-3-methyl-hexanol from the conjugate (C. sp. Ax 20 extract): 0.31 mM
12 | O=C(O)CNCCNCC(=O)O [ethylendiamine-N,N′-diacetic acid] | 7.4 % inhibition | 7.2 % inhibition | 42.7 % inhibition | 65.7 % inhibition | 81.0 % inhibition | 93.9 % inhibition | 50.2 % inhibition | 73.1 % inhibition | 90.4 % inhibition |  | 
13 | c1cnc2c(c1)ccc1cccnc12 [o-Phenantrolin] | 42.4 % inhibition | 81.8 % inhibition | 96.1 % inhibition | 83.9 % inhibition | 95.5 % inhibition | 100.0 % inhibition | 54.2 % inhibition | 79.9 % inhibition | 93.1 % inhibition |  | % inhibition of 3-sulfanyl-3-methyl-hexanol release compared to reactions without added inhibitors (C. sp. Ax20 extract; substrate Cys-Gly-conj. 1 mM): 100 % inhibition; % inhibition of 3-sulfanyl-3-methyl-hexanol release compared to reactions without added inhibitors (C. sp. Ax20 extract; substrate Cys-conj. 1 mM): 0 % inhibition; % inhibition of 3-sulfanyl-3-methyl-hexanol release compared to reactions without added inhibitors (C. jeikeium K411 extract; substrate Cys-Gly-conj. 1 mM): 93 % inhibition; % inhibition of 3-sulfanyl-3-methyl-hexanol release compared to reactions without added inhibitors (C. jeikeium K411 extract; substrate Cys-conj. 1 mM): 13 % inhibition
14 | O=C(O)c1cccc(C(=O)O)n1 [pyridine-2,6-dicarboxylic acid] | 28.8 % inhibition | 52.0 % inhibition | 72.2 % inhibition | 72.4 % inhibition | 92.4 % inhibition | 100.9 % inhibition | 49.6 % inhibition | 83.4 % inhibition | 95.9 % inhibition |  | 
